According to patent US8729089B2 (Gilead Sciences, Inc., priority 2006, dated 2014):

Legend:
[1] = CC50 assay (CellTiter-Glo) in Huh-7 HCV replicon cells; type: cell-based, human; settings: human, 3 days incubation, CellTiter-Glo readout
Experimental: (§1) The anti-HCV activity of the pyrido[3,2-d]pyrimidine derivatives of this invention was tested in a human hepatoma Huh-7 cell line harboring a HCV replicon. The assay comprised the following steps:
(§2) Step 1: Compound Preparation and Serial Dilution
(§3) • 1. for water soluble pyrido[3,2-d]pyrimidine derivatives, a volume of 500 μL of solution in cell media (DMEM, 10% FBS, P/S, L-Glutamine) was prepared with a concentration being twice the concentration of the starting final serial dilution concentration. A volume of 150 μL of the solution was added to the pre-specified wells in column 1 of a 96-well cell culture plate (PerkinElmer, white plate, cat. #6005181, for EC50 assay; black plate, cat. #6005182 for CC50 assay). The rest of the plate, columns 2-12, was filled with 100 μL of cell media. The plate was then placed on a Precision 2000 Workstation to start the serial dilution. Compounds were diluted three times each step from column 1 to column 10. Column 11 was used as a blank control (no compound added). • 2. for pyrido[3,2-d]pyrimidine derivatives requiring DMSO to dissolve, serial dilution is performed in 50% DMSO in a 384-well plate. A solution containing a compound at 100-fold concentration of the starting final serial dilution concentration was prepared in 50% DMSO and added to the pre-specified wells in column 1 of a polypropylene 384-well plate. The plate was then placed on a Precision 2000 Workstation to start the serial dilution. After the serial dilution, a volume of 2 μL of the solution was transferred from the 384-well plate to a 96-well cell culture plate containing 100 μL of cell media on a Biomek FX Workstation. The DMSO concentration in the final assay condition was 0.5% after cells are added to the plate and the total volume in each well is brought to 200 μL.
(§4) Step 2: to each well of the serial dilution plate prepared above, 100 μL of cell media containing 6000 suspended Huh-7 HCV replicon cells was added with a Multidrop workstation. The plates were incubated for 3 days at 37° C. with 5% CO2.
(§5) • a) for the EC50 assay, the media in a 96-well cell culture plate was aspirated with a Biotek EL405 plate-washer. A volume of 200 μL of a solution containing a 1:1 mixture of cell-lysis buffer (Promega, Luciferase Cell Culture Lysis 5× Reagent, cat. #E1531) and luciferase substrate solution (Promega, Luciferase Assay, cat.#E4550) was added to each well of the plate with Multidrop. The plate was incubated for 30 minutes at room temperature before the luminescence signal was measured with a TopCount plate-reader. • b) for the CC50 assay, a volume of 100 μL of pre-mixed CellTiter-Glo (Promega, cat.#G7572) solution is added directly to the cell culture in each well of the plate and the luminescence signal is measured with a TopCount plate-reader after 10 minutes of incubation at room temperature.

[2] = tested on: HCV replicon in human hepatoma Huh-7 cell line; experiment: Anti-HCV replicon assay (EC50, luciferase); type: cell-based; settings: Hepatitis C virus, Huh-7, 72 h
Experimental: as §1, §2, §3, §4, §5

Row | SMILES | CC50 at 3 days [1] | EC50 [2]
1 | CCOc1nc(NCc2ccc(F)cc2)nc2ccc(-c3ccc(NC(N)=O)cc3)nc12 [Example 75, {4-[4-Ethoxy-2-(4-fluoro-benzylamino)-pyrido[3,2-d]pyrimidin-6-yl]-phenyl}-urea] | > 25 µM | < 0.1 µM
2 | CCOc1nc(NCc2ccc(F)cc2)nc2ccc(-c3ccc(N4CC(O)CC4=O)cc3)nc12 (stereo not shown) [Example 76, 1-{4-[4-Ethoxy-2-(4-fluoro-benzylamino)-pyrido[3,2-d]pyrimidin-6-yl]-phenyl}-4-hydroxy-pyrrolidin-2-one] | 5 to 25 µM | < 0.1 µM
3 | CCOc1nc(NCc2ccc(F)cc2)nc2ccc(-c3ccc4[nH]ncc4c3)nc12 [Example 77, [4-Ethoxy-6-(1H-indazol-5-yl)-pyrido[3,2-d]pyrimidin-2-yl]-(4-fluoro-benzyl)-amine] | 5 to 25 µM | < 0.1 µM
4 | CCOc1nc(NCc2ccc(F)cc2)nc2ccc(-c3ccc4c(c3)CC(=O)N4)nc12 [Example 78, 5-[4-Ethoxy-2-(4-fluoro-benzylamino)-pyrido[3,2-d]pyrimidin-6-yl]-1,3-dihydro-indol-2-one] | 5 to 25 µM | < 0.1 µM
5 | CCOc1nc(NCc2ccc(F)cc2)nc2ccc(-c3ccc(NC(=O)C4CC4)nc3)nc12 [Example 79, Cyclopropanecarboxylic acid {5-[4-ethoxy-2-(4-fluoro-benzylamino)-pyrido[3,2-d]pyrimidin-6-yl]-pyridin-2-yl}-amide] | 5 to 25 µM | < 0.1 µM
6 | CCOc1nc(NCc2ccc(F)cc2)nc2ccc(-c3cnc(NC(=O)C4CC4)nc3)nc12 [Example 80, Cyclopropanecarboxylic acid {5-[4-ethoxy-2-(4-fluoro-benzylamino)-pyrido[3,2-d]pyrimidin-6-yl]-pyrimidin-2-yl}-amide] | 5 to 25 µM | < 0.1 µM
7 | CCOc1nc(NCc2ccc(F)cc2)nc2ccc(-c3cccc(NS(=O)(=O)CCN4CCCC4)c3)nc12 [Example 81, 2-Pyrrolidin-1-yl-ethanesulfonic acid {3-[4-ethoxy-2-(4-fluoro-benzylamino)-pyrido[3,2-d]pyrimidin-6-yl]-phenyl}-amide] | < 5 µM | < 0.1 µM
8 | CCOc1nc(NCc2ccc(F)cc2)nc2ccc(-c3cccc(NS(=O)(=O)C4CC4)c3)nc12 [Example 82, Cyclopropanesulfonic acid {3-[4-ethoxy-2-(4-fluoro-benzylamino)-pyrido[3,2-d]pyrimidin-6-yl]-phenyl}-amide] | < 5 µM | < 0.1 µM
9 | CCOc1nc(NCc2ccc(F)cc2)nc2ccc(-c3ccc(S(N)(=O)=O)cc3)nc12 [Example 83, 4-[4-Ethoxy-2-(4-fluoro-benzylamino)-pyrido[3,2-d]pyrimidin-6-yl]-benzenesulfonamide] | 5 to 25 µM | < 0.1 µM
10 | CCOc1nc(NCc2ccc(F)cc2)nc2ccc(-c3cccc(NS(=O)(=O)N(C)C)c3)nc12 [Example 84, N′-{3-[4-Ethoxy-2-(4-fluoro-benzylamino)-pyrido[3,2-d]pyrimidin-6-yl]-phenyl}-N.N-dimethyl methanesulfonyl urea] | < 5 µM | < 0.1 µM
11 | CCOc1nc(NCc2ccc(F)cc2)nc2ccc(-c3cccc(S(N)(=O)=O)c3)nc12 [Example 85, 3-[4-Ethoxy-2-(4-fluoro-benzylamino)-pyrido[3,2-d]pyrimidin-6-yl]-benzenesulfonamide] | 5 to 25 µM | < 0.1 µM
12 | CCOc1nc(NCc2ccc(F)cc2)nc2ccc(-c3ccc(N4CCC(O)C4=O)cc3)nc12 (stereo not shown) [Example 86, 1-{4-[4-Ethoxy-2-(4-fluoro-benzylamino)-pyrido[3,2-d]pyrimidin-6-yl]-phenyl}-3-hydroxy-pyrrolidin-2-one] | < 5 µM | < 0.1 µM
13 | CCOc1nc(NCc2ccc(F)cc2)nc2ccc(-c3ccc(F)nc3)nc12 [Example 87, [4-Ethoxy-6-(6-fluoro-pyridin-3-yl)-pyrido[3,2-d]pyrimidin-2-yl]-(4-fluoro-benzyl)-amine] | < 5 µM | < 0.1 µM
14 | CCOc1nc(NCc2ccc(F)cc2)nc2ccc(-c3ccc(NC(=O)[C@@H]4C[C@@H](O)CN4)cc3)nc12 [Example 88, 4-Hydroxy-pyrrolidine-2-carboxylic acid {4-[4-ethoxy-2-(4-fluoro-benzylamino)-pyrido[3,2-d]pyrimidin-6-yl]-phenyl}-amide] | 5 to 25 µM | < 0.1 µM
15 | CCOc1nc(NCc2ccc(F)cc2)nc2ccc(-c3ccc(NC(=O)[C@@H]4CCCN4)cc3)nc12 [Example 89, Pyrrolidine-2-carboxylic acid {4-[4-ethoxy-2-(4-fluoro-benzylamino)-pyrido[3,2-d]pyrimidin-6-yl]-phenyl}-amide] | < 5 µM | < 0.1 µM
16 | CCOc1nc(NCc2ccc(F)cc2)nc2ccc(-c3ccc(NC(=O)[C@H]4CCNC4)c(F)c3)nc12 [Example 90, Pyrrolidine-3-carboxylic acid {4-[4-ethoxy-2-(4-fluoro-benzylamino)-pyrido[3,2-d]pyrimidin-6-yl]-2-fluoro-phenyl}-amide] | < 5 µM | < 0.1 µM
17 | CCOc1nc(NCc2ccc(F)cc2)nc2ccc(-c3ccc(NC(=O)[C@H]4CCNC4)cc3)nc12 [Example 91, Pyrrolidine-3-carboxylic acid {4-[4-ethoxy-2-(4-fluoro-benzylamino)-pyrido[3,2-d]pyrimidin-6-yl]-phenyl}-amide] | < 5 µM | < 0.1 µM
18 | CCOc1nc(NCc2ccc(F)cc2)nc2ccc(-c3ccc(NC(=O)OCCN4CCCC4)cc3)nc12 [Example 92, {4-[4-Ethoxy-2-(4-fluoro-benzylamino)-pyrido[3,2-d]pyrimidin-6-yl]-phenyl}-carbamic acid 2-pyrrolidin-1-yl-ethyl ester] | < 5 µM | < 0.1 µM
19 | CCOc1nc(NCc2ccc(F)cc2)nc2ccc(-c3ccc(NC(=O)NCCN4CCCC4)cc3)nc12 [Example 93, 1-{4-[4-Ethoxy-2-(4-fluoro-benzylamino)-pyrido[3,2-d]pyrimidin-6-yl]-phenyl}-3-(2-pyrrolidin-1-yl-ethyl)-urea] | < 5 µM | < 0.1 µM
20 | CCOc1nc(NCc2ccc(F)cc2)nc2ccc(-c3ccc(C(=O)NC(C)(C)CO)cc3)nc12 [Example 94, 4-[4-Ethoxy-2-(4-fluoro-benzylamino)-pyrido[3,2-d]pyrimidin-6-yl]-N-(2-hydroxy-1,1-dimethyl-ethyl)-benzamide] | 5 to 25 µM | < 0.1 µM
21 | CCOc1nc(NCc2ccc(F)cc2)nc2ccc(-c3ccc(C(=O)NC(C)(C)CN4CCCC4)cc3)nc12 [Example 95, N-(1,1-Dimethyl-2-pyrrolidin-1-yl-ethyl)-4-[4-ethoxy-2-(4-fluoro-benzylamino)-pyrido[3,2-d]pyrimidin-6-yl]-benzamide] | < 5 µM | < 0.1 µM
22 | CCOc1nc(NC2(c3ccc(F)cc3)CC2)nc2ccc(-c3ccc(C(=O)NC(C)(C)CN4CCCC4)cc3)nc12 [Example 96, N-(1,1-Dimethyl-2-pyrrolidin-1-yl-ethyl)-4-{4-ethoxy-2-[1-(4-fluoro-phenyl)-cyclopropylamino]-pyrido[3,2-d]pyrimidin-6-yl}-benzamide] | < 5 µM | < 0.1 µM
23 | CCOc1nc(NCc2ccc(F)cc2)nc2ccc(-c3ccc(CO)o3)nc12 [Example 97, {5-[4-Ethoxy-2-(4-fluoro-benzylamino)-pyrido[3,2-d]pyrimidin-6-yl]-furan-2-yl}-methanol] | 5 to 25 µM | < 0.1 µM
